Results on 35 molecules are retold here after ChEMBL document CHEMBL3352794, “Identification of potent inhibitors of the chicken soluble epoxide hydrolase” (Bioorg Med Chem Lett, 2015).

Series [1] in a line: Inhibition of recombinant purified chicken soluble epoxide hydrolase using fluorescent PHOME as substrate. Details: species or system Gallus gallus.
Series [2] is described as follows: Stability in chicken liver microsomes assessed as compound remaining at 1 uM after 30 mins by mass spectrometry. (Liver microsomes are a subcellular fraction often used to study metabolism.)
Series [3] can be described thus: Stability in human liver microsomes assessed as compound remaining at 1 uM after 30 mins by mass spectrometry in presence of NADPH.
Series [4] is described as follows: Solubility of the compound in 0.1 M sodium phosphate buffer at pH 7.4 containing 1% DMSO by turbidity method. The note with it: 0.1 M sodium phosphate buffer with 1% DMSO.
The nature of series [5]: Stability in human liver microsomes assessed as compound remaining at 1 uM after 30 mins by mass spectrometry.
Series [6] can be described thus: Stability in chicken liver microsomes assessed as compound remaining at 1 uM after 30 mins by mass spectrometry in presence of NADPH.
Series [7] is described as follows: Inhibition of recombinant purified chicken soluble epoxide hydrolase by FRET-based competitive displacement assay in presence of ACPU. Details: species or system Gallus gallus.

In brackets after ≈: the same amount, converted by molar mass.

What is called IC50 is the concentration that gives 50% inhibition. What is called kinetic solubility is solubility judged after dilution from a stock solution rather than from solid. The term Ki denotes the equilibrium dissociation constant of an inhibitor or competing ligand from its target.

As to `CC(=O)N1CCN(CCCCOc2cccc(NC(=O)NC34CC5CC(CC(C5)C3)C4)c2)CC1`, the IC50 in series [1] was 4 nM.
`CC(=O)N1CCN(CCCCOc2ccc(NC(=O)NC34CC5CC(CC(C5)C3)C4)cc2)CC1`: the half-maximal inhibitory concentration (IC50) in series [1] came out at 2.3 nM.
The same measure, in the same setting: under `NS(=O)(=O)c1ccc(-n2nc(CCCNC(=O)NC3CCCCCC3)cc2-c2ccccc2)cc1` stands 3.3 nM.
On the same count and under the same terms, under `Cc1cc(C)c(CN2CCC(C(=O)NC3CCCCCC3)CC2)c(C)c1` stands 13 nM; under `O=C(Nc1ccc(OCCOCCOCC(F)(F)F)cc1)NC12CC3CC(CC(C3)C1)C2`, 4.4 nM.
Take `C=CCO[C@H]1CC[C@@H](NC(=O)NC23CC4CC(CC(C4)C2)C3)CC1`: in series [1], the IC50 was determined as 1.7 nM.
On the same count and under the same terms, the value for `CCCCCOC(=O)C1CCCC(NC(=O)NC23CC4CC(CC(C4)C2)C3)C1` (stereo not given) was 5.7 nM.
Consider `O=C(O)CCCCCCCCCCCNC(=O)NC12CC3CC(CC(C3)C1)C2`, for which the share remaining at 0.5 h, 1 µM in series [2] came out at 106%; in series [3], 69%; in series [5], 98%; in series [6] it was 70%. In series [1], the IC50 came out at 13 nM. Besides, the kinetic solubility in series [4] came out at 37.5 µM (≈ 14.7 µg/mL).
In the case of `O=C(NC1CCCCCC1)N[C@H]1CC[C@@H](Oc2ccc(F)cc2)CC1`, in series [1], the IC50 was 2.7 nM.
Still for that read-out and setting: the value for `Cc1ccc(S(=O)(=O)N2CCC(C(=O)NCC3CCCCC3)CC2)c(C)c1` was 3 nM.
On to `CNC(=O)c1ccc(O[C@H]2CC[C@H](NC(=O)NC34CC5CC(CC(C5)C3)C4)CC2)cc1`, for which the share remaining at 0.5 h, 1 µM is 96% in series [2], 94% in series [3], 101% in series [5] and 96% in series [6]. For the same molecule, the IC50 in series [1] came out at 2.4 nM. The same molecule returned a solubility (kinetic) in series [4] of 50 µM (≈ 21.3 µg/mL). In addition, the Ki in series [7] was less than 0.02 nM.
As for `CNC(=O)c1cc(O[C@H]2CC[C@H](NC(=O)Nc3ccc(Cl)c(C(F)(F)F)c3)CC2)ccn1`, the IC50 in series [1] was 11 nM.
As to `CNC(=O)c1ccc(O[C@H]2CC[C@H](NC(=O)Nc3ccc(Cl)c(C(F)(F)F)c3)CC2)cn1`, the IC50 in series [1] stood at 5.1 nM.
Take `COc1ccc(O[C@H]2CC[C@@H](NC(=O)NC34CC5CC(CC(C5)C3)C4)CC2)cc1`: the amount remaining at 0.5 h, 1 µM is 69% in series [2], 57% in series [3], 98% in series [5] and 2.1% in series [6].
`O=C(CCCCCCCCCCCNC(=O)NC12CC3CC(CC(C3)C1)C2)N[C@@H]1O[C@H](CO)[C@H](O)[C@@H](O)[C@H]1O`: the IC50 in series [1] worked out at 3.5 nM.
On to `CCCCCOC(=O)C1CCC(NC(=O)NC23CC4CC(CC(C4)C2)C3)CC1` (stereo not given), for which, in series [1], the IC50 was found to be 5.2 nM.
Same read-out and setting: the value for `CC(C)=CCO[C@H]1CC[C@@H](NC(=O)NC23CC4CC(CC(C4)C2)C3)CC1` was 5.3 nM; that for `O=C(NCCCc1ccccc1)N[C@H]1CC[C@@H](Oc2ccc(F)cc2)CC1` was 3.5 nM.
As for `O=C(NC1CCCCCCC1)N[C@H]1CC[C@@H](Oc2ccc(F)cc2)CC1`, in series [1], the IC50 was found to be 5.1 nM.
As to `O=C(Nc1ccc(C(F)(F)F)cc1)N[C@H]1CC[C@H](OCc2c(F)cccc2F)CC1`, in series [1], the IC50 was found to be 4.4 nM.
As to `O=C(Nc1cccc(Cl)c1)N[C@H]1CC[C@H](OCc2c(F)cccc2F)CC1`, the IC50 in series [1] is 2 nM.
The same measure, in the same setting: the value for `O=C(Nc1cccc(Br)c1)N[C@H]1CC[C@H](OCc2c(F)cccc2F)CC1` was 2.4 nM; that for `O=C(NCCCc1ccccc1)N[C@H]1CC[C@H](OCc2c(F)cccc2F)CC1` was 1.9 nM; that for `CCOC(=O)C(C)OCCCCCCCCNC(=O)NC12CC3CC(CC(C3)C1)C2` (stereo not given) was 4.4 nM.
For the molecule `COC(=O)c1ccc(C(=O)N2CCC(NC(=O)Nc3ccc(OC(F)(F)F)cc3)CC2)cc1`, the fraction remaining at 0.5 h, 1 µM came out at 105% in series [2], 2.7% in series [3], 1.2% in series [5] and 94% in series [6]. Further, the IC50 in series [1] worked out at 1.4 nM. This molecule also showed a solubility (kinetic) in series [4] of 75 µM (≈ 34.9 µg/mL).
As for `O=C(NC12CC3CC(CC(C3)C1)C2)N[C@H]1CC[C@H](OCc2cc(F)cc(F)c2)CC1`, the IC50 in series [1] worked out at 3.1 nM.
Still for that read-out and setting: the value for `CC(C)(C)OC(=O)N1CCC(NC(=O)NC23CC4CC(CC(C4)C2)C3)CC1` was 7.5 nM; that for `NC(=O)CCCCCCCCCCCNC(=O)NC12CC3CC(CC(C3)C1)C2` was 2.1 nM.
Turning to `O=C(NC12CC3CC(CC(C3)C1)C2)N[C@H]1CC[C@H](Oc2ccc(CO)cc2)CC1`, the share remaining at 0.5 h, 1 µM in series [2] was 73%; in series [3], 53%; in series [5], 91%; in series [6], 24%. Further, the IC50 in series [1] is 1.2 nM. The solubility (kinetic) in series [4] is greater than 100 µM. Moreover, the Ki in series [7] was less than 0.02 nM.
As to `N#Cc1ccc(O[C@H]2CC[C@H](NC(=O)Nc3ccc(Cl)c(C(F)(F)F)c3)CC2)cc1`, the IC50 in series [1] was determined as 3.6 nM.
Regarding `CNC(=O)c1ccc(O[C@H]2CC[C@@H](NC(=O)Nc3ccc(OC(F)(F)F)cc3)CC2)cc1`, the share remaining at 0.5 h, 1 µM in series [2] is 119%; in series [3], 5.4%; in series [5] it was 101%; in series [6] it was 89%. Besides, the IC50 in series [1] worked out at 2.1 nM. The solubility (kinetic) in series [4] was 10 µM (≈ 4.51 µg/mL).
Regarding `CCN(CC)C(=O)c1cc(O[C@H]2CC[C@H](NC(=O)Nc3ccc(Cl)c(C(F)(F)F)c3)CC2)ccn1`, in series [1], the IC50 was determined as 9.6 nM.
Consider `NS(=O)(=O)c1ccc(-n2nc(CCCNC(=O)Nc3ccc(C(F)(F)F)cc3)cc2-c2ccc(F)cc2)cc1`, for which the IC50 in series [1] was determined as 5.7 nM.
With `O=C(NC12CC3CC(CC(C3)C1)C2)N[C@H]1CC[C@@H](Oc2ccc(F)cc2)CC1`, in series [1], the IC50 turned out to be 1.2 nM.
The same measure, in the same setting: under `O=C(NCCCCOc1ccc(F)cc1)NC12CC3CC(CC(C3)C1)C2` stands 9.6 nM.
